According to US11479578B2, “Protein purification and virus inactivation with alkyl glycosides” (priority 2017, dated 2022):
Read-outs that look alike come from different tables or passages of the source.

Key:
PRV (pseudorabies virus) = format: cell-based
[1] = tested on: MuLV (murine leukemia virus); format: cell-based
[2] = tested on: BVDV (bovine viral diarrhea virus); format: cell-based
VACV (Vaccinia virus) = format: cell-based
rD′D3-FP = biological target: T1, rD′D3-FP (Homo sapiens, UniProt P02768+P04275)
T1 construct: made in house; host or cells: CHO cells
T1 sequence (P04275+P02768 fused): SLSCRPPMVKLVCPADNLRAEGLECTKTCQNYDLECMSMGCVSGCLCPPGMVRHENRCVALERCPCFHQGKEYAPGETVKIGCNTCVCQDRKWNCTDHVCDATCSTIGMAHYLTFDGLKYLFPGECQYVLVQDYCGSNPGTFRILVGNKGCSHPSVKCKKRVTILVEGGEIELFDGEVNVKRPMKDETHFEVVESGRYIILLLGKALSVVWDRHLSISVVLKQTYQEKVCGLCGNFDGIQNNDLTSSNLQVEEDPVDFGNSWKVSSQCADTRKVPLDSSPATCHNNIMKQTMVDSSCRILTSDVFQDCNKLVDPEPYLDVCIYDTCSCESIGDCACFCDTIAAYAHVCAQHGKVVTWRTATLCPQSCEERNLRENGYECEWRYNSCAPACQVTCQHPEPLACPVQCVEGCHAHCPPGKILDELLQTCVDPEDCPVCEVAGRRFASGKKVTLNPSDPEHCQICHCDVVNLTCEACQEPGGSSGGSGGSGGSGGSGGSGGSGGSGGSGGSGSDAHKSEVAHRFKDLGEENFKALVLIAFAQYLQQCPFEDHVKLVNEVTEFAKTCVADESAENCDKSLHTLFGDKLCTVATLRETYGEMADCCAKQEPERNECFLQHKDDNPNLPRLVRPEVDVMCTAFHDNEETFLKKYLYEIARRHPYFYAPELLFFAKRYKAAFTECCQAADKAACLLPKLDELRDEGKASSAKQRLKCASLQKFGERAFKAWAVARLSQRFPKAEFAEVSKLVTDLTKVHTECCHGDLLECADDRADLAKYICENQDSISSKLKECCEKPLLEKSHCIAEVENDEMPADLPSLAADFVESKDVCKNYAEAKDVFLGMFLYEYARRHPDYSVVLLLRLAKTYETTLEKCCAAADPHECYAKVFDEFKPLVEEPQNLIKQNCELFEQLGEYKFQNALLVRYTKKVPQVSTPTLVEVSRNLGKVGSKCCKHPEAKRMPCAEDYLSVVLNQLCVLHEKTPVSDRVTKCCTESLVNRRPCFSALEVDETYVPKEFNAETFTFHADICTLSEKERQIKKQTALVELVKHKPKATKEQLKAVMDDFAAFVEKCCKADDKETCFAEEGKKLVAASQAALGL

[3] = tested on: VSV (Vesicular Stomatitis Virus); format: cell-based

CCCCCCCCCCO[C@@H]1O[C@H](CO)[C@@H](O[C@H]2O[C@H](CO)[C@@H](O)[C@H](O)[C@H]2O)[C@H](O)[C@H]1O [DM, n-decyl-beta-D-maltoside]
PRV virus titre after treatment (PRV (pseudorabies virus)): ≤2.2 | virus inactivation capacity (in words) (PRV (pseudorabies virus)): effective

CCCCCCCCCCCCO[C@@H]1O[C@H](CO)[C@@H](O)[C@H](O)[C@H]1O [DDG, n-dodecyl-beta-D-glucopyranoside]
PRV virus titre after treatment (PRV (pseudorabies virus)): ≤2.2 | virus inactivation capacity (in words) (PRV (pseudorabies virus)): effective

CCCCCCCCO[C@@H]1O[C@H](CO)[C@@H](O[C@H]2O[C@H](CO)[C@@H](O)[C@H](O)[C@H]2O)[C@H](O)[C@H]1O [OM, n-octyl-beta-D-maltoside]
virus inactivation capacity (in words) (PRV (pseudorabies virus)): effective

CCCCCCCCCCCCO[C@@H]1O[C@H](CO)[C@@H](O[C@H]2O[C@H](CO)[C@@H](O)[C@H](O)[C@H]2O)[C@H](O)[C@H]1O [DDM, n-dodecyl-beta-D-maltoside]
PRV virus titre after treatment (PRV (pseudorabies virus)): ≤4.2 | virus inactivation capacity (in words) (PRV (pseudorabies virus)): effective

CCCCCCCCO[C@@H]1O[C@H](CO)[C@@H](O)[C@H](O)[C@H]1O [OG, n-octyl-beta-D-glucopyranoside]
LRV (PRV (pseudorabies virus)): ≥6.3 log10 | time to complete PRV inactivation (PRV (pseudorabies virus)): 60 min | virus inactivation capacity (in words) (PRV (pseudorabies virus)): effective | PRV Load (PRV (pseudorabies virus); 15 min): ≤1.2 log10 | PRV Load (PRV (pseudorabies virus); 120 min): 6.7 log10 | LRV [1]: ≥4.2 log10 | MuLV virus titre after treatment [1]: ≤1.2 | time to complete MuLV inactivation [1]: ≤ 15 min | BVDV virus titre after treatment [2]: ≤1.2 | LRV [2]: ≥5.3 log10 | time to complete BVDV inactivation [2]: ≤ 15 min | VACV inactivation (in words) (VACV (Vaccinia virus)): completely inactivates VACV very fast | VACV virus titre after treatment (VACV (Vaccinia virus)): ≤1.5 | rD′D3-FP in the eluate fraction (rD′D3-FP): 83% | VSV virus titre after treatment [3]: ≤1.5

CCCCCCCCCCO[C@@H]1O[C@H](CO)[C@@H](O)[C@H](O)[C@H]1O [DG, n-decyl-beta-D-glucopyranoside]
PRV virus titre after treatment (PRV (pseudorabies virus)): ≤2.2 | virus inactivation capacity (in words) (PRV (pseudorabies virus)): effective
